Source: a melting point compilation (Tetko et al.; mined from patent text by program, amines drawn as free bases though some values may be those of a salt)

| SMILES | melting point [°C] |
| --- | --- |
| Cc1noc(NC(=O)NCCC2CCN(Cc3ccccc3)CC2)n1 | 138 to 139 |
| CCCc1c(SCCCCSc2nc3ccc(C(=O)O)cc3[nH]2)ccc(C(C)=O)c1O | 90 to 95 |
| CC(=O)c1ccc(-c2ccc(OCc3ccc4ccccc4n3)cc2)c([N+](=O)[O-])c1 | 160 to 162 |
| N#Cc1cc([N+](=O)[O-])cc(O)c1O | 186 to 188 |
| N#Cc1ccc(OCC(O)CN2CC3CC(C2)CN(C(=O)OCCCl)C3)cc1 (centres undefined) | 104 to 105 |
| O=C(O)Cc1ccc(-n2cc(Cl)cn2)cc1Cl | 152 to 153 |
| CCC(=O)c1ccc2c(c1)N(C(C)=O)c1ccccc1S2 | 146 to 147 |
| CCOc1ccc(-c2[nH]c3ccc(OCc4ccccc4)cc3c2C)cc1 | 143 to 145 |
| CONC(=N)c1nn(-c2c(Cl)cc(C(F)(F)F)cc2Cl)c(N)c1S(C)=O (centres undefined) | 169 to 170 |
| COc1cc2c(cc1OCc1ccccc1)CCCC(C(=O)N1CCN(C(=O)c3cc(OC)c(OC)c(OC)c3)CC1)=C2 | 140 to 142 |
| O=C(NC(=O)c1cccs1)c1cncc([N+](=O)[O-])c1 | 187 |
| CCOc1nn(-c2ccc(C(F)(F)F)cn2)cc1CCCOc1cc(OC)ccc1CCC(=O)O | 115 to 116 |
| CC(C(=O)O)c1ccc2c(c1)C(=O)Cc1cc(Cl)ccc1S2 (centres undefined) | 195 to 196 |
| Cc1c(CNC(=O)NO)c2cc(OCc3ccc4ccccc4n3)ccc2n1Cc1ccc(Cl)cc1 | 184 to 186 |
| O=C(CS)N1CCSC1COc1ccccc1O (centres undefined) | 92 to 93 |
| COC(=O)C1=C(OC)c2ccccc2S(=O)(=O)N1C | 79 to 80 |
| COCCOc1ccccc1-c1cc2[nH]c3ccc(OCc4ccccc4)cc3c2c2c1C(=O)NC2=O | 157 to 159 |
| O=C(O)CCCCCCCC(=O)Nc1cc(Cl)ccc1O | 117 to 118 |
| COc1ccc(Oc2c(Br)cc(C#N)cc2Br)cc1Cc1ccc(=O)[nH]n1 | 214 to 216 |
| CC(C)(O)c1ccc(-c2ccc(C(CC3CCOCC3)c3ccc(S(=O)(=O)C4CC4)cc3)[nH]2)nc1 (centres undefined) | 112 to 114 |
| CC12CCC(C(=O)O)=CC1=CCC1C2CCC2(C)C(C(=O)c3ccc(O)cc3)CCC12 (centres undefined) | 295 |
| Cc1csc2ccc3[nH]c4c(c3c12)CNCC4 | 234 |
| COCCc1ccsc1S(N)(=O)=O | 64 to 73 |
| FC(F)(F)c1nnnn1-c1ccc(OCc2ccccc2)c(Br)c1 | 66 to 68 |
| CCCCn1c(=O)c(C(=O)OCC)c(N)c2cnc(C)nc21 | 214 to 216 |

| SMILES | melting point [°C] |
| --- | --- |
| c1cncc(CNC2=Nc3ccccc3Nc3ccccc32)c1 | 150 to 152 |
| O=C(O)c1cc(Cl)cc2ccoc12 | 212 to 215 |
| Cc1cc(Cl)cc(Cl)c1OC(=O)c1ccc(CCl)cc1 | 74 to 75 |
| Nc1cc(OCc2cccc(Cl)c2)c(C(=O)O)cc1Cl | 182 to 184 |
| CCOP(=O)(Cc1ccc(NC(=O)/C=C/c2cn(Cc3ccccc3)nc2-c2ccc(F)cc2)cc1)OCC | 199 to 200 |
| CCOC(=O)c1cn(CC)c2nc(OC)ncc2c1=O | 149 |
| COCCNC(=O)c1cc(C(=O)O)cc([N+](=O)[O-])c1 | 203 to 207 |
| NCC1Cc2cc(Cl)c3[nH]c(=O)ccc3c2O1 (centres undefined) | > 300 |
| CCCCC(=O)Nc1ccc(C(=O)CCC(=O)O)cc1 | 153 to 155 |
| N#Cc1nn(-c2ccc(S(N)(=O)=O)cc2)c2c1CSc1ccccc1-2 | 211 to 213 |
| CN(C)c1ccc(CN/C=C2\C(=O)NC(=O)c3ccc(I)cc32)cc1O | 198 to 199 |
| CCNS(=O)(=O)c1nc2cc(C(=O)c3ccccc3)ccc2[nH]1 | 250 to 253 |
| COC(=O)c1ccc2nc(C)[nH]c2c1C(=O)OC | 97 to 103 |
| CCn1c(=O)n(C2CCN(C(C)(C)CCCN3C(=O)c4ccccc4S3(=O)=O)CC2)c2ccccc21 | 182 to 185 |
| C/C(=C\c1cc(F)cc(F)c1)C(=O)O | 148 |
| O=[N+]([O-])c1ccc2c(ccn2Cc2ccccc2)c1 | 102 to 104 |
| COc1ccc2ccccc2c1CCN | > 180 |
| CCCCCCCCSc1nc(NCC(C)(C)c2cc(C(C)(C)C)c(O)c(C(C)(C)C)c2)nc(NC2CC(C)(C)NC(C)(C)C2)n1 | 130 |
| CN1CCN(c2ccc(C(=O)NCCCCCCCCCO[N+](=O)[O-])cn2)CC1 | 90 to 92 |
| CCNS(=O)(=O)c1cccc(NC(=O)c2cnn3c(C(F)(F)F)cc(-c4ccc(C(F)(F)F)cc4)nc23)c1 | 207 |
| CC(C)c1nc2c(c3c1[nH]c1ccccc13)C(=O)C(C)(C)CC2 | 182 to 184 |
| CCn1c(=O)sc2cc(N)ccc21 | 132 to 133 |
| CC(CCc1ccc(C(C)C(=O)O)cc1)C(=O)O (centres undefined) | 107 to 109 |
| C=C(C)COc1ccc2c(C)cc(=O)oc2c1C(=O)C=Cc1cc(OC)c(OC)c(OC)c1 | 128 to 130 |
